The values that follow are results of earlier work, collected in patent US8216611B2, “Combined-step process for pharmaceutical compositions” (Mylan Pharmaceuticals ULC, priority 2005, dated 2012).

The test system of one data set is epileptic patients. The conditions noted are these: doses up to 4000 mg/day, preliminary data.
Another data set deals with healthy volunteers. Also on record: tolerability at single dose: dose or concentration left out as unconfirmed.

On to `CC[C@@H](C(N)=O)N1CCCC1=O` [levetiracetam, (−)-(S)-α-ethyl-2-oxo-1-pyrrolidine acetamide], for which the solubility in water is 104.0 g/100 ml. Further, in the data set on epileptic patients, the “tolerability in epileptic patients” value was “good tolerability”. The “tolerability at repeated doses” value with healthy volunteers (repeated doses (1500 mg/day for 14 days)) is recorded as “well tolerated”. In addition, in the data set with healthy volunteers (single dose), the “tolerability at single dose” value is “well tolerated”.
